Reference: patent US8106196B2, “Dihydropyrimidine compounds and their uses in manufacture of a medicament for treatment and prevention of viral diseases” (Beijing Molecule Science and Technology Co., Ltd, priority 2007, dated 2012)

Assays:
[1] = tested on: HBV DNA; experiment: Antiviral activity: inhibition of HBV DNA in supernatant of HepG 2.2.15 cells (dot blot hybridization); type: cell-based, hepatitis B virus (HBV); details: for IC50: Hepatitis B virus, HepG2.2.15, 192 h, HepG 2.2.15 cells, 8 days incubation, hepatitis B-specific band reduced by 50% vs untreated sample, read-out: IC50 (half-maximum inhibitory concentration, HBV DNA); for SI: selectivity index, from TC50 and IC50 in HepG 2.2.15 cells
Protocol: The antiviral activity of the compounds according to the present invention was determined by the methods described by Sells et al. (M. A. Sells, M. L. Chen, g. Acs, Proc. Natl. Acad. Sci., 1987, 84, 1005-1009) and Korba et al., (B. E. Korba, J. L. Gerin, Antiviral Research, 1992, 19. 55-70).
(§1) The antiviral tests were carried out in 96-well microtiter plates. Only growth medium and HepG 2.2.15 cells were added to the first vertical row of the plate as a blank control.
(§2) Stock solutions of the test compounds (50 mM) were first dissolved in DMSO, and further dilutions were prepared in the growth medium of HepG 2.2.15 cell. The compounds according to the present invention, usually in a test concentration of 100 μg/ml (1st test concentration), were pipetted into each well of the second vertical test row of the microtiter plate and subsequently diluted with growth medium plus 2% of foetal calf serum (volume 25 μl) by 2 fold each time, up to 2^10-fold.
225 μl of a HepG 2.2.15 cell suspension (5×10^4 cells/ml) in growth medium plus 2% foetal calf serum were then added to each well of the 96-well microtiter plate.
The test mixture was incubated at 37° C., 5% CO2 for 4 days. The supernatant was subsequently siphoned off and discarded, and 225 μl of freshly prepared growth medium were added to each well. The compounds according to the present invention were added again in a volume 25 μl. The mixture were incubated from another 4 days.
The supernatants were subsequently harvested and siphoned in vacuum onto 96-well dot blot chambers covered with a nylon membrane (in accordance with the instructions of the manufacturer). […]
The viral DNA of the treated HepG 2.2.15 cells on the nylon filter membrane was usually determined using non-radioactive digoxigenin-labelled hepatitis B-specific DNA probes which were in each case labelled with digoxigenin, purified and used for hybridization in accordance with the instructions of the manufacturer.
Briefly speaking, the prehybridization and hybridization were carried out in 5×SSC, 1× blocking agent, 0.1% N-lauroylsacosine, 0.02% SDS and 100 μg of DNA from herring sperm. […] The filler membrane was subsequently washed and the antibodies against digoxigenin of HBV DNA were determined.
The digoxigenin-labeled DNA was detected immunologically in accordance with the instructions of the manufacturer.
Briefly speaking, the filler membrane were washed and prehybridized with a blocking agent (in accordance with the instructions of the manufacturer). […] The chemiluminescent signals of the Hepatitis B-specific DNA were measured by exposing of the filters to an X-ray film (incubation for 10 minutes to 2 hours depending on the signal strength) to determine the half-maximum inhibitory concentration (IC50). […]

[2] = Cytotoxicity in HepG 2.2.15 cells (cell morphology under microscope after 8 days, Reed & Muench); type: cell-based; details: human, pathological changes after 8 days, read-out: TC50 (half-maximum toxic concentration)
Protocol: as §1
as §2, with “2^10-fold. […]” for “2^10-fold.”
Substances-induced cytotoxic or cytostatic changes in HepG 2.2.15 cells were determined as changes in the cell morphology, for example under an optical microscope. […] The average degree of the pathological change and percent inhibition at each concentration were calculated, and a half-maximum toxic concentration (TC50) and a maximum non-toxic concentration TC0 were determined according to Reed & Muench methods. […]
The cytotoxicity and antiviral activity of the compounds according to the present invention were determined by the methods as described above, and the results were shown in Table 1.

COC(=O)C1=C(C)NC(c2cccs2)=NC1c1ccccc1 (stereo not drawn) [Example 4, methyl 2-(thien-2-yl)-4-phenyl-6-methyl-1,4-dihyropyrimidin-5-carboxylate]
IC50 [1]: 29.6 µM
SI [1]: 3.56
CC50 at 8 days [2]: 105 µM

COC(=O)C1=C(C)NC(c2cccs2)=NC1c1ccc(F)cc1Cl (stereo not drawn) [Example 1, methyl 2-(thien-2-yl)-4-(2-chloro-4-fluorophenyl)-6-methyl-1,4-dihyropyrimidin-5-carboxylate]
IC50 [1]: 0.007 µM
SI [1]: >10^5
CC50 at 8 days [2]: 1100 µM
